Assay [1] has as its target T1, human ETA receptors (Homo sapiens, UniProt P25101).
T1 construct: endogenous in cells; host or cells: TE 671 cells (ATCC HTB 139), membrane preparation
T1 sequence (P25101 21-427): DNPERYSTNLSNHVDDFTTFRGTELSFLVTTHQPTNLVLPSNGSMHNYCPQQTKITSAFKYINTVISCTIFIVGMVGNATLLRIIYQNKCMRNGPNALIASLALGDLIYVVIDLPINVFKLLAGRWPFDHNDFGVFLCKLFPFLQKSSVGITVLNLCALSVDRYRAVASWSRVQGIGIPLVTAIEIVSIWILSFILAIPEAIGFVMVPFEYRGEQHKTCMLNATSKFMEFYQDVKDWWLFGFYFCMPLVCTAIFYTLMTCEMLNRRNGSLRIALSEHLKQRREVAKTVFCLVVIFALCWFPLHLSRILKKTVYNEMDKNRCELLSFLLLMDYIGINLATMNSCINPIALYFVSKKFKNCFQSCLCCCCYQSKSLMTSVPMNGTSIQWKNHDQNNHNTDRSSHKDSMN
Briefly: Endothelin binding inhibition, Binding Test #1: competition with 125I-ET-1 for ETA receptors on TE 671 cell membranes. Here is the method: (§1) Cells from multiple flasks were collected by scraping, pooled and centrifuged for 10 min at 190×g. The cells were resuspended in phosphate buffered saline (PBS) containing 10 mM EDTA using a Tenbroeck homogenizer. The suspension was centrifuged at 4° C. at 57,800×g for 15 min, the pellet was resuspended in 5 mL of buffer A (5 mM HEPES buffer, pH 7.4 containing aprotinin (100 KIU/mL)) and then frozen and thawed once. 5 mL of Buffer B (5 mM HEPES Buffer, pH 7.4 containing 10 mM MnCl2 and 0.001% deoxyribonuclease Type 1) was added, the suspension mixed by inversion and then incubated at 37° C. for 30 minutes. The mixture was centrifuged at 57,800×g as described above, the pellet washed twice with buffer A and then resuspended in buffer C (30 mM HEPES buffer, pH 7.4 containing aprotinin (100 KIU/mL) to give a final protein concentration of 2 mg/mL and stored at −70° C. until use.
The membrane suspension (50 μL), containing up to 8 μg of membrane protein, was added to each of (A), (B), or (C). […] Alternatively, the incubation was conducted at 24° C.
The supernatant, containing unbound radioactivity, was decanted and the pellet counted on a Genesys multiwell gamma counter. The degree of inhibition of binding (D) was calculated according to the following equation: [formula]
Each test was generally performed in triplicate.

The target of assay [2] is T2, human ETB receptor (Homo sapiens, UniProt P24530).
T2 construct: expressed in transfected cells; host or cells: COS7 cells
T2 sequence (P24530 27-442): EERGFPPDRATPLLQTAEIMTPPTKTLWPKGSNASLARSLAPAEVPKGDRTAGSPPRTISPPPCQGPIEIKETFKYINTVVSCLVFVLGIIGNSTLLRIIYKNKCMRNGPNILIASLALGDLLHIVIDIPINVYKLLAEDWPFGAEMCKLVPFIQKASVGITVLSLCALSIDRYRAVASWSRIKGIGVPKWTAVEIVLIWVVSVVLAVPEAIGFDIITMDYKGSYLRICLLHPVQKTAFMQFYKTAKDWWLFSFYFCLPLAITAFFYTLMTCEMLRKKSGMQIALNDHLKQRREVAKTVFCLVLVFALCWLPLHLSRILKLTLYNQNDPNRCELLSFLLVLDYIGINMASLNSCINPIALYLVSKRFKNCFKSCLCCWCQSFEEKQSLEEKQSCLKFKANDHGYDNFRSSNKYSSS
Briefly: Endothelin binding inhibition, Binding Test #2: competition with 125I-ET-1 for ETB receptors on transfected COS7 cell membranes. The conditions noted are these: for IC50: incubation at 24° C. (values marked †); for inhibition at 100 µM: read-out: ETB % inhibition @ 100 μM, @ 100 μM, incubation at 24° C.
Description: Compounds that are potential endothelin antagonists are identified by testing their ability to compete with ^125I-labeled ET-1 for binding to human ETA receptors or ETB receptors present on isolated cell membranes. The effectiveness of the test compound as an antagonist or agonist of the biological tissue response of endothelin can also be assessed by measuring the effect on endothelin induced contraction of isolated rat thoracic aortic rings. The ability of the compounds to act as antagonists or agonists for ETB receptors can be assess by testing the ability of the compounds are to inhibit endothelin-1 induced prostacyclin release from cultured bovine aortic endothelial cells.
COS7 cells were transfected with DNA encoding the ETB receptor, The resulting cells, which express the human ETB receptor, were grown to confluence in T-150 flasks. Membrane was prepared as described above. The binding assay was performed as described above using the membrane preparation diluted with binding buffer to a concentration of 1 μg/50 μL.
as §1, with “Briefly, the COS7 cells, described above, that had been transfected with DNA encoding the ETB receptor and express the human ETB receptor on their surfaces were grown to confluence in T-175 flasks. Cells” for “Cells”, “C.” for “C. at”, “once. Five” for “once. 5”, “2 mg/mL.” for “2 mg/mL and stored at −70° C. until use.”
The binding assay was performed as described above using the membrane preparation diluted to give 1 μg/50 μL of binding buffer.

Setting [3] is: incubation at 24° C. (values marked †).

The record followed here is patent US6632829B2, “Sulfonamides and derivatives thereof that modulate the activity of endothelin” (Texas Biotechnology Corp., priority 1996, dated 2003).

In general, IC50 refers to the concentration that gives 50% inhibition. Higher therefore signals weaker potency in that assay. In general, inhibition refers to the share of the control response that was lost under treatment.

On to `CCCCc1ccc(-c2ccsc2S(=O)(=O)Nc2onc(C)c2Br)cc1` [N-(4-bromo-3-methyl-5-isoxazolyl)-3-(4-butylphenyl)thiophene-2-sulfonamide], for which the results for the IC50 in assay [1] (incubation at 4° C. (values without †)) and in assay [2] were 160 nM and 6110 nM, respectively.
Regarding `Cc1ccc(OCc2ccsc2S(=O)(=O)Nc2onc(C)c2Br)c(C)c1` [N-(4-bromo-3-methyl-5-isoxazolyl)-3-[(2,4-dimethylphenoxy)methyl]thiophene-2-sulfonamide], the half-maximal inhibitory concentration (IC50) worked out at 346 nM in assay [1] (setting [3]) and 7450 nM in assay [2].
The like results for `Cc1cc(NC(=O)c2sccc2S(=O)(=O)Nc2onc(C)c2Cl)no1` [N-(4-chloro-3-methyl-5-isoxazolyl)-2-[(5-methyl-3-isoxazolyl)aminocarbonyl]thiophene-3-sulfonamide] were, in that order, 56 nM and 92000 nM.
In the case of `Cc1cc(C)c(NC(=O)c2sccc2S(=O)(=O)Nc2onc(C)c2C)c(C)c1CO` [N-(3,4-dimethyl-5-isoxazolyl)-2-(3-hydroxymethyl-2,4,6-trimethylphenylaminocarbonyl)thiophene-3-sulfonamide], the concentration for half-maximal inhibition (IC50) in assay [1] (setting [3]) amounted to 1.11 nM; in assay [2] it was 33800 nM.
In turn, `Cc1ccc(OC(=O)c2sccc2S(=O)(=O)Nc2onc(C)c2C)c(C)c1` [N-(3,4-dimethyl-5-isoxazolyl)-2-[(2,4-dimethylphenoxy)carbonyl]thiophene-3-sulfonamide] displayed a half-maximal inhibitory concentration (IC50) in assay [1] (setting [3]) of 274 nM. Also, the inhibition at 100 µM in assay [2] is 21%.
Consider `COc1cc(C#N)c(NC(=O)c2sccc2S(=O)(=O)Nc2onc(C)c2Cl)cc1OC` [N-(4-chloro-3-methyl-5-isoxazolyl)-2-[{2-cyano-4,5-dimethoxyphenyl)aminocarbonyl]thiophene-3-sulfonamide], for which the IC50 in assay [1] (setting [3]) stood at 3.9 nM; in assay [2], 12200 nM.
Taken in the same sequence, the figures for `CCCc1cc2c(cc1OCc1ccsc1S(=O)(=O)Nc1onc(C)c1Br)OCO2` [N-(4-bromo-3-methyl-5-isoxazolyl)-3-{[2-propyl-4,5-(methylenedioxy)phenoxy]methyl}thiophene-2-sulfonamide] were approximately 200 nM and approximately 1500 nM.
Taken in the same sequence, the figures for `Cc1ccc(OC(=O)c2sccc2S(=O)(=O)Nc2onc(C)c2Br)c(C)c1` [N-(4-bromo-3-methyl-5-isoxazolyl)-2-[(2,4-dimethylphenoxy)carbonyl]thiophene-3-sulfonamide] were 291 nM and 43200 nM.
In the case of `Cc1cc(C)c(OC(=O)c2sccc2S(=O)(=O)Nc2onc(C)c2Cl)c(C)c1` [N-(4-chloro-3-methyl-5-isoxazolyl)-2-[(2,4,6-trimethylphenoxy)carbonyl]thiophene-3-sulfonamide], the IC50 in assay [1] (setting [3]) amounted to 77.6 nM; in assay [2] it was 30200 nM.
For the compound `Cc1ccc(OC(=O)c2sccc2S(=O)(=O)Nc2onc(C)c2Cl)cc1` [N-(4-chloro-3-methyl-5-isoxazolyl)-2-[(4-methylphenoxy)carbonyl]thiophene-3-sulfonamide], the IC50 in assay [1] (setting [3]) was determined as 3200 nM. Also, the inhibition at 100 µM in assay [2] stood at 43%.
On to `COc1cc(NC(=O)c2sccc2S(=O)(=O)Nc2onc(C)c2Cl)c(C(N)=O)cc1OC` [N-(4-chloro-3-methyl-5-isoxazolyl)-2-(2-carboxamido-4,5-dimethoxyphenylaminocarbonyl)thiophene-3-sulfonamide], for which the half-maximal inhibitory concentration (IC50) in assay [1] (setting [3]) came out at 11 nM; in assay [2], 61000 nM.
Taken in the same sequence, the figures for `Cc1cc2c(cc1CC(=O)c1sccc1S(=O)(=O)Nc1noc(C)c1Cl)OCO2` [N-(4-chloro-5-methyl-3-isoxazolyl)-2-[2-methyl-4,5-(methylenedioxy)phenylacetyl]thiophene-3-sulfonamide] were 0.625 nM and 3690 nM.
With `Cc1ccc(OCc2sccc2S(=O)(=O)Nc2onc(C)c2Br)c(C)c1` [N-(4-bromo-3-methyl-5-isoxazolyl)-2-[(2,4-dimethylphenoxy)methyl]thiophene-3-sulfonamide], the IC50 amounted to 308 nM in assay [1] (setting [3]) and 4480 nM in assay [2].
With `Cc1cc(C)c(NC(=O)c2sccc2S(=O)(=O)Nc2onc(C)c2Cl)c(-c2ccccc2)c1` [N-(4-chloro-3-methyl-5-isoxazolyl)-2-(2-phenyl-4,6-dimethylphenylaminocarbonyl)thiophene-3-sulfonamide], the half-maximal inhibitory concentration (IC50) worked out at 15.9 nM in assay [1] (setting [3]) and 29500 nM in assay [2].
For the compound `Cc1noc(NS(=O)(=O)c2ccc(C(=O)Nc3ccccc3)s2)c1Cl` [N-(4-chloro-3-methyl-5-isoxazolyl)-5-(phenylaminocarbonyl)thiophene-2-sulfonamide], the half-maximal inhibitory concentration (IC50) turned out to be 28100 nM in assay [1] (setting [3]) and 60600 nM in assay [2].
Turning to `Cc1noc(NS(=O)(=O)c2ccsc2NC(=O)Oc2ccc3c(c2)OCO3)c1Br` [N-(4-bromo-3-methyl-5-isoxazolyl)-2-[3,4-(methylenedioxy)phenoxycarbonylamino]thiophene-3-sulfonamide], the figures for the IC50 in assay [1] (setting [3]) and in assay [2] were 87 nM and 5900 nM, respectively.
Taken in the same sequence, the figures for `Cc1noc(NS(=O)(=O)c2ccsc2C(=O)Oc2ccc3c(c2)OCO3)c1Br` [N-(4-bromo-3-methyl-5-isoxazolyl)-2-[(3,4-methylenedioxy)phenoxycarbonyl]thiophene-3-sulfonamide] were 7.3 nM and 6000 nM.
For `Cc1cc(C)c(OCc2ccsc2S(=O)(=O)Nc2onc(C)c2Br)c(C)c1` [N-(4-bromo-3-methyl-5-isoxazolyl)-3-[(2,4,6-trimethylphenoxy)methyl]thiophene-2-sulfonamide], the results for the half-inhibitory concentration (IC50) in assay [1] (setting [3]) and in assay [2] were 45.7 nM and 4680 nM, respectively.
As for `Cc1noc(NS(=O)(=O)c2ccc(-c3cc4ccccc4s3)s2)c1Br` [N-(4-bromo-3-methyl-5-isoxazolyl)-5-(benzo[b]thien-2-yl)thiophene-2-sulfonamide], the half-inhibitory concentration (IC50) in assay [1] (setting [3]) came out at 16000 nM; in assay [2], 800 nM.
As to `COc1ccccc1-c1ccsc1S(=O)(=O)Nc1onc(C)c1Br` [N-(4-bromo-3-methyl-5-isoxazolyl)-3-(2-methoxyphenyl)thiophene-2-sulfonamide], the IC50 turned out to be 1710 nM in assay [1] (setting [3]) and 59100 nM in assay [2].
Taken in the same sequence, the figures for `COc1ccc(NC(=O)c2sccc2S(=O)(=O)Nc2onc(C)c2Cl)c(C)c1` [N-(4-chloro-3-methyl-5-isoxazolyl)-2-[4-methoxy-2-methylphenyl)aminocarbonyl]thiophene-3-sulfonamide] were 27 nM and 140 nM.
